Data on 2 molecules can be found in patent publication US12240904B2, “Use of anti-PD-1 antibody in combination with famitinib in preparation of drug for treating tumors” (Jiangsu Hengrui Medicine Co., Ltd., priority 2018, dated 2025).

Like-named read-outs stand apart in the source and are kept apart here.

The subject of data set [1] is advanced/metastatic colorectal cancer. The settings on record: 25 mg, once a day, cited from earlier work.
For the next data set, the target named is T1, Axl (Homo sapiens, UniProt P30530).
T1 construct: purchased
T1 sequence (P30530 26-894): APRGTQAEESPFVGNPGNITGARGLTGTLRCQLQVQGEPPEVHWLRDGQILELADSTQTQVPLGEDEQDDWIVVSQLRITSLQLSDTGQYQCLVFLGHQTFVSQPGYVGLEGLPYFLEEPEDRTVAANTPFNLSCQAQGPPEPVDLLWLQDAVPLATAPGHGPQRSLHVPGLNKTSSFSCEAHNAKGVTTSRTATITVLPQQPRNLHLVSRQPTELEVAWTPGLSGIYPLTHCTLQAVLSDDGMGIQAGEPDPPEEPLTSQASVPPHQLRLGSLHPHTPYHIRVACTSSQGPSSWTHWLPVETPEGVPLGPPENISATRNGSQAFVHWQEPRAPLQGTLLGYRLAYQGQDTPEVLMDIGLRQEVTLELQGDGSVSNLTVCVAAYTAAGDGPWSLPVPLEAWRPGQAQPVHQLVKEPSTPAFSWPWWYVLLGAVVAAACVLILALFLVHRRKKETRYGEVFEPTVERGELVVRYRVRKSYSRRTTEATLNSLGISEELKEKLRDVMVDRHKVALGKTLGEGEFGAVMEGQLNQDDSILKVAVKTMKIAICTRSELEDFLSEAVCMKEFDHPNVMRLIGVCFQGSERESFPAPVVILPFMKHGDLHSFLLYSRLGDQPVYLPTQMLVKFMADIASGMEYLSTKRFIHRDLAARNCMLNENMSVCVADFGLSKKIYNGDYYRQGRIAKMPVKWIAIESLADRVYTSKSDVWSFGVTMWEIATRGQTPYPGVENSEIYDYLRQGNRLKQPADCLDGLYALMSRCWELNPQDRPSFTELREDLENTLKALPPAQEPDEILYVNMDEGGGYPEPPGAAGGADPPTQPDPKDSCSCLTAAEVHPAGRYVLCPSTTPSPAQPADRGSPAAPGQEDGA
Put plainly: IC50Profiler in vitro kinase activity. The format is biochemical. The settings on record: ATP 10 μM. Here is the method:
(§1) (1) Experimental Procedures for IC50Profiler™
(§2) Appropriate amounts of kinase and peptide substrates were separately mixed with different concentrations of famitinib malate (1 nM, 3 nM, 10 nM, 30 nM, 100 nM, 300 nM, 1 μM, 3 μM, 10 μM) and incubated for 60 min at room temperature. Magnesium acetate and [gamma-33P]-ATP were added to initiate the kinase-catalyzed reaction, and the reaction was carried out at room temperature for 40 minutes. After the reaction was finished, 3% phosphoric acid solution was added to terminate the reaction. 10 μL of the reaction mixture was taken and added onto a P30 filter membrane to be filtered. The membrane was washed with 75 mM phosphate buffer for 3 times and washed once with methanol to remove free [gamma-33P]-ATP. The protein was fixed, and the membrane was dried. The liquid scintillation analyzer was used to determine the amount of peptide substrate by counting the amount of 33P.

The target of a further data set is T2, Mer (Homo sapiens, UniProt Q12866).
T2 construct: purchased
T2 sequence (Q12866 21-999): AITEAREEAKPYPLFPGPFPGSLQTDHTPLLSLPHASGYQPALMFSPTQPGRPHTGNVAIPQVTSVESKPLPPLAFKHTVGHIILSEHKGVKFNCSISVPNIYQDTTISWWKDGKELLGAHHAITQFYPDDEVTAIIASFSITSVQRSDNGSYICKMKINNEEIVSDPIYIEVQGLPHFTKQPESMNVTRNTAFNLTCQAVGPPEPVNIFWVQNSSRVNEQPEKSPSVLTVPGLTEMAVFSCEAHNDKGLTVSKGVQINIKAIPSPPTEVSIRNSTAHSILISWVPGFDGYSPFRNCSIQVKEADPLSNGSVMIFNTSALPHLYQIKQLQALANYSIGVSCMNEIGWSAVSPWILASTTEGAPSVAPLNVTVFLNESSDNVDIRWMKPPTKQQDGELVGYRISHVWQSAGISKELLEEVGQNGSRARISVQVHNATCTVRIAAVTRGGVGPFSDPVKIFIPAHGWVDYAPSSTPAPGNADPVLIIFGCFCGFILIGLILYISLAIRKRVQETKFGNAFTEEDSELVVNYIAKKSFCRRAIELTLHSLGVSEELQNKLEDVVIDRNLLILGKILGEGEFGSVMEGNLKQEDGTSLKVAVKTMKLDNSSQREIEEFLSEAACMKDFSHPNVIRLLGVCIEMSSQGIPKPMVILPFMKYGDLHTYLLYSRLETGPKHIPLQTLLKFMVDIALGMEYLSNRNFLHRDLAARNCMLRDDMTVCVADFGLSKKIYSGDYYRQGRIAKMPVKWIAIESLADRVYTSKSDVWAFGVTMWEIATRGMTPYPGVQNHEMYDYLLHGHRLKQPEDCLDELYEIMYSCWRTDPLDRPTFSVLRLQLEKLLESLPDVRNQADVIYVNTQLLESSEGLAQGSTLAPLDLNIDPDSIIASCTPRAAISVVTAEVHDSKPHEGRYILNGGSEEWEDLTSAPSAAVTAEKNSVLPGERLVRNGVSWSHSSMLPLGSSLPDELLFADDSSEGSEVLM
The experiment in a line: IC50Profiler in vitro kinase activity. The data set is classed as biochemical. Conditions: ATP 10 μM. Here is the method:
as §1, §2

In the next data set the target is T3, TYRO3 (Rse) (Homo sapiens, UniProt Q06418).
T3 construct: purchased
T3 sequence (Q06418 41-890): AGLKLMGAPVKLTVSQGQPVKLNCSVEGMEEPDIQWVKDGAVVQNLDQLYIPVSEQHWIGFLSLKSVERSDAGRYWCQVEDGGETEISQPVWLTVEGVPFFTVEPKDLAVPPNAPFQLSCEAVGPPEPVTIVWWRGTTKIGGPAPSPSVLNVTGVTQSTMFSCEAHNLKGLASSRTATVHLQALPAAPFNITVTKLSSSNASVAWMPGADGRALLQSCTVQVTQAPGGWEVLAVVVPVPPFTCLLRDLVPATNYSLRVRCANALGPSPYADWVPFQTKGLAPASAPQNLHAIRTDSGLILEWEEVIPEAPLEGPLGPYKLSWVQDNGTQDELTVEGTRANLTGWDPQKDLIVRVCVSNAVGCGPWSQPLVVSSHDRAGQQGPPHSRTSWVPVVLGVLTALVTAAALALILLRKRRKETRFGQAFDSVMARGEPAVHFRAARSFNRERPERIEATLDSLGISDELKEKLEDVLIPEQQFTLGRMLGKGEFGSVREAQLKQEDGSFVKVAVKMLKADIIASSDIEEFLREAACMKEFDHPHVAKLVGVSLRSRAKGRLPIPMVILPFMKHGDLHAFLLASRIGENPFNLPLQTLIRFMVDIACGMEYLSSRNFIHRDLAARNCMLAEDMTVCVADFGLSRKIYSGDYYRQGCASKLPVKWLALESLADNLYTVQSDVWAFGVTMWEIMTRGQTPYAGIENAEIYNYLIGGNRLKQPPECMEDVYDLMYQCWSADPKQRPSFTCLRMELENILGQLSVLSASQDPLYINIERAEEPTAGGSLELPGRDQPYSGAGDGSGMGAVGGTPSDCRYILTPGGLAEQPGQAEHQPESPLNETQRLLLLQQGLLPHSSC
The experiment in a line: IC50Profiler in vitro kinase activity. The format is biochemical. Conditions: ATP 10 μM. Here is the method:
as §1, §2

Data set [2] can be described thus: clinical study, pharmacokinetics of Compound B. The format is in vivo, human. The settings on record: for AUC: human, blood, oral. From the text: In the present disclosure, “AUC” refers to the area surrounded by the pharmacokinetic blood drug concentration curve versus time axis. This parameter is an important indicator for evaluating the degree of drug absorption, reflecting the exposure profiles of the drug in vivo. Since the blood drug concentration in pharmacokinetic studies can only be observed up to a certain time point t, AUC can be expressed in the following two means: AUC (0-t) and AUC (0-∞), wherein AUC (0-t) is derived from the trapezoidal area, and AUC (0-∞) is calculated by the formula: AUC (0-∞)=AUC (0-t)+end point concentration/end point elimination rate. The AUC mentioned in the present application refers to the averaged AUC0-24 of the patient reaching a steady state after a single administration or multiple administrations, preferably the averaged AUC0-24 of the patient reaching a steady state after multiple administrations (i.e. AUCss).
Compound A: intravenous injection, 200 mg, once every 3 weeks, 1 cycle every 3 weeks; Compound B: 20 mg or 15 mg, oral administration, once a day.
Among the 12 subjects who participated in the pharmacokinetic study, PK blood was collected from 9 subjects.

The test system of a further data set is kidney cancer. The settings on record: Compound B 25 mg, q.d., alone; cited from earlier work.
[3] abbreviates: administration alone, 20 mg (n = 8).
Where [4] appears, read: co-administration with Compound A, 20 mg (n = 9).

As to `CCN(CC)CCN1CCc2[nH]c(/C=C3\C(=O)Nc4ccc(F)cc43)c(C)c2C1=O` [famitinib], the “improvement of progression-free survival (PFS) compared to the placebo group” value in data set [1] (period of 42 days) is listed as 1.3 months. Also, in data set [1], the “HR (PFS vs placebo)” value is 0.596, the adverse events entry is reported as “adverse events are under control”, the “disease control rate (DCR)” value is given as 59.8% and the “median survival (mOS)” value is 7.5 months. Besides, the “objective remission rate (ORR)” value in data set [1] is on record as 2.2%.

As to `CCN(CC)CCN1CCc2[nH]c(/C=C3\C(=O)Nc4ccc(F)cc43)c(C)c2C1=O` [Compound B, famitinib malate], the results for the IC50 against Axl, on Mer and on TYRO3 (Rse) were 36.8 nM, 4.35 nM and 326 nM, respectively. Besides, the “Css, max, Geomean (Geometric % CV)” value in data set [2] (setting [3]) is given as 59.9 (44.4) ng/mL; in data set [2] (setting [4]), 71.6 (24.3) ng/mL. For the same molecule, the “Css, max, Mean ± SD” value in data set [2] (setting [3]) was 64.3 ± 23.8 ng/mL; in data set [2] (setting [4]) it was 73.4 ± 16.8 ng/mL. Further, the “Css, min, Geomean (Geometric CV %)” value in data set [2] (setting [3]) was 29.8 (56.6) ng/mL; in data set [2] (setting [4]) it was 36.6 (28.8) ng/mL. In addition, the “Css, min, Mean ± SD” value in data set [2] (setting [3]) amounted to 33.2 ± 14.6 ng/mL; in data set [2] (setting [4]), 38.0 ± 11.0 ng/mL. Also, the “Tss, max, Median (Min, Max)” value in data set [2] (setting [3]) was 6 (2, 8) h; in data set [2] (setting [4]) it was 6 (4, 10) h. In addition, the “exposure amount of Compound B compared to administration alone” value in data set [2] (co-administrated with Compound A) is listed as “increased”. The AUC was 1090 ng·h/mL in data set [2] (20 mg, administration alone, 20 mg (n = 8), read-out: AUCss, Geomean (Geometric % CV)); 1180 ± 465 ng·h/mL in data set [2] (20 mg, administration alone, 20 mg (n = 8), read-out: AUCss, Mean ± SD); 1330 ng·h/mL in data set [2] (co-administration with Compound A, 20 mg (n = 9), read-out: AUCss, Geomean (Geometric % CV)); 1360 ± 300 ng·h/mL in data set [2] (co-administration with Compound A, 20 mg (n = 9), read-out: AUCss, Mean ± SD). In the data set with kidney cancer, the ORR was 36%.
